Measurements from US7858634B2, “Amorphous 3-pyridil-1-hydroxyethyliden-1,1-biphosphonic acid monosodium salt and process for the preparation thereof” (Chemi SpA, priority 2004, dated 2010).

Test: comparative dissolution test in deionized water
Settings: for time to complete dissolution: 200 mg suspended in 25 ml deionized water, 20° C., magnetic stirring at 25 rpm, monosodium salt

| SMILES | time to complete dissolution | water solubility with respect to crystalline forms (amorphous form, preferably lyophilized, vs commercially available or otherwise described crystalline forms) |
| --- | --- | --- |
| O=P([O-])(O)C(O)(Cc1cccnc1)P(=O)(O)O.[Na+] [sodium risedronate hemipentahydrate, 3-pyridil-1-hydroxyethyliden-1,1-biphosphonic acid monosodium salt] | > 30 ′ | – |
| O=P([O-])(O)C(O)(Cc1cccnc1)P(=O)(O)O.[Na+] [amorphous sodium risedronate, 3-pyridil-1-hydroxyethyliden-1,1-biphosphonic acid monosodium salt] | ≤ 2 ′ | improved water solubility |
